Data from patent US12274684B2, “Treatment of vasculopathy with prostacyclin and mesenchymal stem cells” (United Therapeutics Corporation, priority 2013, dated 2025).
Where “and” joins values, the source holds several entries; their conditions need not be identical. Equal values may be shown once.

System: human bone marrow MSC
Assay: Microarray gene expression analysis of MSC (Illumina Human HT12 Expression BeadChip)
Assay type: cell-based
Details: 24 h
Description: Human bone marrow MSC were expanded and seeded into six (6) T225 flasks using standard growth medium (Table 1). At 95-99% confluency, cells were thoroughly washed with PBS. Three (3) flasks were replenished with basal media containing 250 μg/mL treprostinil, (+)Tre, and the remaining three (3) flasks were replenished with unsupplemented basal media, (−)Tre. After 24 hours of culture, representative images were captured from (+) Tre and (−) Tre cultures. Conditioned media was collected from each replicate, divided into two samples of appropriate volumes, and analyzed separately for: 1) secreted proteins (Myriad RBM InflammationMAP® 1.0) and 2) exosome RNA content. Cells were lysed directly from culture flasks, processed for total RNA isolation, and analyzed for gene expression by microarray (Illumina Human HT12 Expression BeadChip). Microarray gene expression analysis was also performed on MSC from cultures without (−) or with (+) 250 ug/mL treprostinil. Three (3) biological replicates from each condition were analyzed. Of the 77,612 sequences identified among all replicates, only 24,273 were detected above the arbitrary background of 50 counts. 2,984 RNA sequences were unique to Tre(−) cultures, while 1,781 RNA sequences were unique to Tre(+) cultures (panel A). Genes detected in both conditions were further analyzed for differential expression (panel). […] Genes that are expressed only in Tre(−) cultures (that is to say, completely turned off in the Tre(+) cultures) are shown in Table 5.

CCCCC[C@H](O)CC[C@@H]1[C@H]2Cc3cccc(OCC(=O)O)c3C[C@H]2C[C@H]1O [treprostinil]
ACTN1 (NM_001130005) Fold Change, decrease in Tre(+) vs Tre(−) (250 μg/mL): 12.7 fold | ANGPT1 (NM_001146) Fold Change, decrease in Tre(+) vs Tre(−) (250 μg/mL): 14.6 fold | ANK3 (NM_001204403) Fold Change, decrease in Tre(+) vs Tre(−) (250 μg/mL): 14.2 fold | ANLN (NM_018685) Fold Change, decrease in Tre(+) vs Tre(−) (250 μg/mL): 11.7 fold | C11orf96 (NM_001145033) Fold Change, increase in Tre(+) vs Tre(−) (250 μg/mL): 12.0 fold | C13orf33 (NM_032849) Fold Change, increase in Tre(+) vs Tre(−) (250 μg/mL): 21.0 fold | CD55 (NM_000574) Fold Change, increase in Tre(+) vs Tre(−) (250 μg/mL): 21.5 fold | CD55 (NM_001114752) Fold Change, increase in Tre(+) vs Tre(−) (250 μg/mL): 13.2 fold | CELF1 (NM_001172640) Fold Change, decrease in Tre(+) vs Tre(−) (250 μg/mL): 10.9 fold | COL6A3 (NM_004369) Fold Change, decrease in Tre(+) vs Tre(−) (250 μg/mL): 11.7 fold | COL21A1 (NM_030820) Fold Change, decrease in Tre(+) vs Tre(−) (250 μg/mL): 27.4 fold | CPA4 (NM_016352) Fold Change, decrease in Tre(+) vs Tre(−) (250 μg/mL): 12.0 fold | CTGF (NM_001901) Fold Change, decrease in Tre(+) vs Tre(−) (250 μg/mL): 31.1 fold | CXCL12 (NM_199168) Fold Change, decrease in Tre(+) vs Tre(−) (250 μg/mL): 15.8 fold | DDAH1 (NM_001134445) Fold Change, decrease in Tre(+) vs Tre(−) (250 μg/mL): 12.7 fold | DKFZp547J0510 (CDNA FLJ42650 fis, clone BRACE3027478) Fold Change, decrease in Tre(+) vs Tre(−) (250 μg/mL): 13.0 fold | DUSP1 (NM_004417) Fold Change, increase in Tre(+) vs Tre(−) (250 μg/mL): 12.9 fold | EPB41L2 (NM_001199389) Fold Change, decrease in Tre(+) vs Tre(−) (250 μg/mL): 11.2 fold | GDF5 (NM_000557) Fold Change, decrease in Tre(+) vs Tre(−) (250 μg/mL): 12.5 fold | GDF15 (NM_004864) Fold Change, increase in Tre(+) vs Tre(−) (250 μg/mL): 32.1 fold | GPRC5A (NM_003979) Fold Change, increase in Tre(+) vs Tre(−) (250 μg/mL): 13.2 fold | HSD11B1 (NM_005525) Fold Change, increase in Tre(+) vs Tre(−) (250 μg/mL): 15.4 fold | IDH1 (NM_005896) Fold Change, increase in Tre(+) vs Tre(−) (250 μg/mL): 13.1 fold | IER3 (NM_003897) Fold Change, increase in Tre(+) vs Tre(−) (250 μg/mL): 22.5 fold | IGFBP1 (NM_000596) Fold Change, increase in Tre(+) vs Tre(−) (250 μg/mL): 118.2 fold | IL6 (NM_000600) Fold Change, increase in Tre(+) vs Tre(−) (250 μg/mL): 109.5 fold | ISLR (NM_005545) Fold Change, decrease in Tre(+) vs Tre(−) (250 μg/mL): 10.1 fold | LIPG (NM_006033) Fold Change, increase in Tre(+) vs Tre(−) (250 μg/mL): 13.2 fold | LMOD1 (NM_012134) Fold Change, decrease in Tre(+) vs Tre(−) (250 μg/mL): 26.4 fold | MEST (NM_002402) Fold Change, decrease in Tre(+) vs Tre(−) (250 μg/mL): 15.1 fold | MEST (NM_177525) Fold Change, decrease in Tre(+) vs Tre(−) (250 μg/mL): 11.9 fold | METTL7A (NM_014033) Fold Change, decrease in Tre(+) vs Tre(−) (250 μg/mL): 11.9 fold | MXRA5 (NM_015419) Fold Change, decrease in Tre(+) vs Tre(−) (250 μg/mL): 32.6 fold | NR4A2 (NM_006186) Fold Change, increase in Tre(+) vs Tre(−) (250 μg/mL): 12.5 fold | OLFML1 (NM_198474) Fold Change, decrease in Tre(+) vs Tre(−) (250 μg/mL): 12.4 fold | OLFML2B (NM_015441) Fold Change, decrease in Tre(+) vs Tre(−) (250 μg/mL): 20.8 fold | PALLD (NM_001166109) Fold Change, decrease in Tre(+) vs Tre(−) (250 μg/mL): 13.0 fold | PALLD (NM_001166110) Fold Change, increase in Tre(+) vs Tre(−) (250 μg/mL): 13.3 fold | PDE5A (NM_033430) Fold Change, decrease in Tre(+) vs Tre(−) (250 μg/mL): 15.2 fold | PITPNC1 (NM_181671) Fold Change, increase in Tre(+) vs Tre(−) (250 μg/mL): 16.0 fold | PLIN2 (NM_001122) Fold Change, increase in Tre(+) vs Tre(−) (250 μg/mL): 47.0 fold | PRELP (NM_002725) Fold Change, decrease in Tre(+) vs Tre(−) (250 μg/mL): 12.9 fold | PRKAG2 (NM_024429) Fold Change, increase in Tre(+) vs Tre(−) (250 μg/mL): 78.6 fold | PTP4A1 (NM_003463) Fold Change, increase in Tre(+) vs Tre(−) (250 μg/mL): 11.8 fold | RCAN1 (NM_203418) Fold Change, increase in Tre(+) vs Tre(−) (250 μg/mL): 10.9 fold | RCAN2 (NM_001251974) Fold Change, decrease in Tre(+) vs Tre(−) (250 μg/mL): 11.6 fold | RND3 (NM_005168) Fold Change, increase in Tre(+) vs Tre(−) (250 μg/mL): 12.9 fold | S100A4 (NM_002961) Fold Change, decrease in Tre(+) vs Tre(−) (250 μg/mL): 10.5 fold | SAT1 (transcript variant 2, non-coding RNA) Fold Change, increase in Tre(+) vs Tre(−) (250 μg/mL): 13.5 fold | SCG2 (NM_003469) Fold Change, increase in Tre(+) vs Tre(−) (250 μg/mL): 21.3 fold | SIK1 (NM_173354) Fold Change, increase in Tre(+) vs Tre(−) (250 μg/mL): 20.3 fold | SLC2A12 (NM_145176) Fold Change, decrease in Tre(+) vs Tre(−) (250 μg/mL): 12.2 fold | SLC3A2 (NM_001013251) Fold Change, increase in Tre(+) vs Tre(−) (250 μg/mL): 10.5 fold | SLC6A15 (NM_182767) Fold Change, increase in Tre(+) vs Tre(−) (250 μg/mL): 23.7 fold | SLC14A1 (NM_015865) Fold Change, decrease in Tre(+) vs Tre(−) (250 μg/mL): 18.5 fold | SREBF1 (NM_004176) Fold Change, increase in Tre(+) vs Tre(−) (250 μg/mL): 11.5 fold | SYNPO2 (NM_001128933) Fold Change, decrease in Tre(+) vs Tre(−) (250 μg/mL): 24.6 fold | VEGFA (NM_001025370) Fold Change, increase in Tre(+) vs Tre(−) (250 μg/mL): 13.5 fold | VEGFA (NM_001171626) Fold Change, increase in Tre(+) vs Tre(−) (250 μg/mL): 11.5 fold | ANGPTL4 (NM_139314) expression, Rep 1-3 (Tre(+) 250 μg/mL): 1570 counts and 2337 counts and 1371 counts | ANLN (NM_018685) expression, Rep 1-3 (Tre(+) 250 μg/mL): 67 counts and 68 counts and 37 counts
